Paper PMC10901819, “Structure-function analysis of the cyclic β-1,2-glucan synthase from Agrobacterium tumefaciens” (Nature Communications, 2024)

Biological target: T1, Cgs (CgsWT) (Agrobacterium fabrum, UniProt Q7CWD9)
T1 construct: gene chvB; full length, C-terminal 3xFlag from chromosomal insertion; purified from native A. tumefaciens C58 membranes in DDM; nanodiscs (cryo-EM) or proteoliposomes (activity); subpopulation of dimers
Experiment: cryo-EM structure
Assay type: binding
Details: GT active site; sample incubated with 5 mM UDP-Glc, 1.5 mM MgCl2, pH 7.5, 22 °C; putative UDP density

In the case of O=c1ccn([C@@H]2O[C@H](COP(=O)(O)OP(=O)(O)O)[C@@H](O)[C@H]2O)c(=O)[nH]1 [UDP], the cryo-EM structure was “The CgsWT model contains an additional density docked at the active site”.
